Measured values from patent US7932290B2, “Method for the treatment of metabolic disorders” (Wellstat Biologics Corporation, priority 2003, dated 2011).

Legend:
Assay in all cases: Transcription activation potential, GAL4 luciferase reporter in C3A cells
Assay type in all cases: cell-based
[1] = target: T1, Human PPARα LBD fusion protein (Homo sapiens, UniProt Q07869)
T1 construct: a.a; 167-468)
T1 sequence (Q07869 167-468): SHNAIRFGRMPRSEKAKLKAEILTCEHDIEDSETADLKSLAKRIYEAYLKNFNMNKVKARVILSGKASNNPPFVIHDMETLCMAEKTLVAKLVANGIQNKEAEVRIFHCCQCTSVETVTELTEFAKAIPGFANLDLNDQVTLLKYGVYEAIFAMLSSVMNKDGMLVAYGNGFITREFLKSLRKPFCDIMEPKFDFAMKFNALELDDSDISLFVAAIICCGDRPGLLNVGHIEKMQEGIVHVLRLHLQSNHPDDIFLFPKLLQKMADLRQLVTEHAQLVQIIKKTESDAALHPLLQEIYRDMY
Experimental: (§1) Cells were seeded in 24 well plates the day prior to transfection at 5×10^4−2×10^5 cells/well, depending upon cell type. Cells were transfected using Lipofectamine 2000 reagent from Invitrogen. A total of 0.8 μg DNA/well was added to 50 μL of Optimem Reduced Serum media (serum free; Gibco). Lipofectamine 2000 was added (2.5 μL/well) to another tube containing 50 μL of Optimem media. Plasmid DNA was added at a ratio of 4:3 (reporter:activator); where appropriate, salmon sperm DNA was substituted for activator expressing plasmid. The reporter plasmid used was pFR-Luc, which has the firefly luciferase gene under the control of a GAL4 UAS ([…]) containing promoter. The activator expressing plasmids contain yeast GAL4 DNA binding domain (dbd) fusion of either human PPARα ligand binding domain (LBD; a.a. 167-468) or human PPARγ LBD (a.a. 176-479). DNA constructs containing the mouse PPARα or PPARγ LBD fused to the GAL4 DNA binding domain were also used. The two solutions were incubated at room temperature for 5 min, and then combined. The combined solution was incubated at room temperature for approximately 30 min. Cells were washed once with PBS, and 100 μL of transfection mix added to each well. Plates were incubated at 37° C. in a 5% CO2 incubator for 4.5 hr, followed by aspiration of the transfection mix, with plates refed using EMEM complete media (supplemented with 10% FBS, 1× Glutamine). 24 hr post-transfection, plates were treated with the appropriate compounds in EMEM complete media, followed by washing once with PBS and addition of 100 μL 1× reporter lysis buffer/well (Promega) 24 hr after treatment. Plates went through one freeze/thaw cycle prior to analysis. Approximately 10 μL of lysate was added to 100 μL of firefly luciferase substrate, mixed by pipetting, and analyzed on a luminometer for 10 s using the integration function (relative luciferase units/RLU) or on a Microbeta Trilux (luciferase counts per second/LCPS). Each treatment was performed in triplicate, and in multiple, separate experiments.

[2] = target: T2, Mouse PPARα LBD fusion protein (Mus musculus, UniProt P23204)
T2 sequence (P23204 239-466): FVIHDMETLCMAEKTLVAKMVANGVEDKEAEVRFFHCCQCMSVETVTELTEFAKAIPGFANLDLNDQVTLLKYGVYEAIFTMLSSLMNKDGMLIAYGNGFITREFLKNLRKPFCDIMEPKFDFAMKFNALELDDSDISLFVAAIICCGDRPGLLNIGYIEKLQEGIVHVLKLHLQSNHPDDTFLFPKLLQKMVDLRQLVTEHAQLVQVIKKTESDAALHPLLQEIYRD
Experimental: as §1

[3] = system: Human PPARγ LBD fusion protein
Experimental: (§2) Cells were seeded in 24 well plates the day prior to transfection at 5×10^4−2×10^5 cells/well, depending upon cell type. Cells were transfected using Lipofectamine 2000 reagent from Invitrogen. A total of 0.8 μg DNA/well was added to 50 μL of Optimem Reduced Serum media (serum free; Gibco). Lipofectamine 2000 was added (2.5 μL/well) to another tube containing 50 μL of Optimem media. Plasmid DNA was added at a ratio of 4:3 (reporter:activator); where appropriate, salmon sperm DNA was substituted for activator expressing plasmid. […] DNA constructs containing the mouse PPARα or PPARγ LBD fused to the GAL4 DNA binding domain were also used. The two solutions were incubated at room temperature for 5 min, and then combined. The combined solution was incubated at room temperature for approximately 30 min. Cells were washed once with PBS, and 100 μL of transfection mix added to each well. Plates were incubated at 37° C. in a 5% CO2 incubator for 4.5 hr, followed by aspiration of the transfection mix, with plates refed using EMEM complete media (supplemented with 10% FBS, 1× Glutamine). 24 hr post-transfection, plates were treated with the appropriate compounds in EMEM complete media, followed by washing once with PBS and addition of 100 μL 1× reporter lysis buffer/well (Promega) 24 hr after treatment. Plates went through one freeze/thaw cycle prior to analysis. Approximately 10 μL of lysate was added to 100 μL of firefly luciferase substrate, mixed by pipetting, and analyzed on a luminometer for 10 s using the integration function (relative luciferase units/RLU) or on a Microbeta Trilux (luciferase counts per second/LCPS). Each treatment was performed in triplicate, and in multiple, separate experiments.

[4] = target: T3, Mouse PPARγ LBD fusion protein (Mus musculus, UniProt P37238)
T3 sequence (P37238 238-503): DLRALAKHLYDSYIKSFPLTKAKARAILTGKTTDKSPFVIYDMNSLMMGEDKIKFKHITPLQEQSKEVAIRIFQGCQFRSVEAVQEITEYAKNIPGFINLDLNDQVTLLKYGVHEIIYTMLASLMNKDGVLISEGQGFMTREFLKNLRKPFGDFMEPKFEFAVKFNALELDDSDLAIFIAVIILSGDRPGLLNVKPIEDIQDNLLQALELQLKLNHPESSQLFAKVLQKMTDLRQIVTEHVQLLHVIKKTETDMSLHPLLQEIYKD
Experimental: as §2

[5] = 100 μM test compound, Table 20b
[6] = 200 μM test compound, Table 20b

Row | SMILES | transcription activation potential (luciferase) ± standard deviation ([1]; 1 μM) | transcription activation potential (luciferase) ± standard deviation ([1]; 3 μM) | transcription activation potential (luciferase) ± standard deviation ([1]; 10 μM) | transcription activation potential (luciferase) ± standard deviation ([1]; 30 μM) | transcription activation potential (luciferase) ± standard deviation ([1]; 100 μM) | transcription activation potential (luciferase) ± standard deviation ([1]; 200 μM) | transcription activation potential (luciferase) ± standard deviation ([2]; 1 μM, Table 20a) | transcription activation potential (luciferase) ± standard deviation ([2]; 3 μM, Table 20a) | transcription activation potential (luciferase) ± standard deviation ([2]; 10 μM, Table 20a) | transcription activation potential (luciferase) ± standard deviation ([2]; 30 μM, Table 20a) | transcription activation potential (luciferase) ± standard deviation ([2]; 100 μM, Table 20a) | transcription activation potential (luciferase) ± standard deviation ([2]; 100 μM, Table 21a) | transcription activation potential (luciferase) ± standard deviation ([2]; 200 μM, Table 20a) | transcription activation potential (luciferase) ± standard deviation ([3]; 1 μM test compound) | transcription activation potential (luciferase) ± standard deviation ([3]; 3 μM test compound) | transcription activation potential (luciferase) ± standard deviation ([3]; 10 μM test compound) | transcription activation potential (luciferase) ± standard deviation ([3]; 30 μM test compound) | transcription activation potential (luciferase) ± standard deviation ([3]; 100 μM test compound) | transcription activation potential (luciferase) ± standard deviation ([3]; 200 μM test compound) | transcription activation potential (luciferase) ± standard deviation ([4]; 1 μM test compound, Table 20b) | also measured
1 | Cc1cccc(C)c1COc1cccc(C(=O)CCC(=O)O)c1 [Compound BI, 4-(3-(2,6-Dimethylbenzyloxy)phenyl)-4-oxobutyric acid] | 127.7 ± 7.1 LCPS | 128 ± 70.7 LCPS | 52.7 ± 8.2 LCPS | 55.4 ± 16.2 LCPS | 20.9 ± 13.1 LCPS | 31.1 ± 29.4 LCPS | 14.67 ± 1.08 LCPS | 15.2 ± 2.78 LCPS | 15.1 ± 3.78 LCPS | 10.43 ± 1.81 LCPS | 15.37 ± 6.21 LCPS | 4421 ± 118 RLU | 18.6 ± 11.66 LCPS | 43.3 ± 11.6 LCPS | 26 ± 4.5 LCPS | 40.1 ± 13.5 LCPS | 22.9 ± 10.3 LCPS | 34.6 ± 15.6 LCPS | 227.3 ± 25.8 LCPS | 2.4 ± 2.26 LCPS | transcription activation potential (luciferase) ± standard deviation ([4]; 1 μM, Table 21b): 746 ± 362 RLU; transcription activation potential (luciferase) ± standard deviation ([4]; 3 μM test compound, Table 20b): 2.6 ± 1.41 LCPS; transcription activation potential (luciferase) ± standard deviation ([4]; 3 μM, Table 21b): 174 ± 153 RLU; transcription activation potential (luciferase) ± standard deviation ([4]; 5 μM, Table 21b): 996 ± 855 RLU; transcription activation potential (luciferase) ± standard deviation ([4]; 7 μM, Table 21b): 220 ± 137 RLU; transcription activation potential (luciferase) ± standard deviation ([4]; 10 μM test compound, Table 20b): 2.2 ± 1.57 LCPS; transcription activation potential (luciferase) ± standard deviation ([4]; 10 μM, Table 21b): 479 ± 353 RLU; transcription activation potential (luciferase) ± standard deviation ([4]; 30 μM test compound, Table 20b): 4.9 ± 4.42 LCPS; transcription activation potential (luciferase) ± standard deviation ([4]; 30 μM, Table 21b): 557 ± 639 RLU; transcription activation potential (luciferase) ± standard deviation [4, 5]: 2.63 ± 1.96 LCPS; transcription activation potential (luciferase) ± standard deviation ([4]; 100 μM, Table 21b): 3330 ± 1848 RLU; transcription activation potential (luciferase) ± standard deviation [4, 6]: 65.77 ± 10.55 LCPS
2 | Cc1cccc(C)c1COc1cccc(CC(=O)O)c1 [Compound CF, 3-(2,6-Dimethylbenzyloxy)phenylacetic acid] | 37 ± 11.5 LCPS | 47 ± 22.8 LCPS | 19.9 ± 7.8 LCPS | 40.2 ± 18.9 LCPS | 19 ± 14.2 LCPS | 12.9 ± 8.3 LCPS | 13.17 ± 7.84 LCPS | 5.63 ± 0.42 LCPS | 153.15 ± 24.4 LCPS | 358.6 ± 5.23 LCPS | 201.5 ± 50.84 LCPS | 41037 ± 5401 RLU | 106.77 ± 32.53 LCPS | 6.2 ± 0.6 LCPS | 49.4 ± 7.8 LCPS | 141.5 ± 25.9 LCPS | 230.4 ± 97.2 LCPS | 225.2 ± 57.5 LCPS | 280.1 ± 89.7 LCPS | 0.33 ± 0.21 LCPS | transcription activation potential (luciferase) ± standard deviation ([2]; 1 μM, Table 21a): 2694 ± 159 RLU; transcription activation potential (luciferase) ± standard deviation ([2]; 3 μM, Table 21a): 4527 ± 740 RLU; transcription activation potential (luciferase) ± standard deviation ([2]; 5 μM, Table 21a): 7188 ± 1753 RLU; transcription activation potential (luciferase) ± standard deviation ([2]; 7 μM, Table 21a): 14325 ± 1032 RLU; transcription activation potential (luciferase) ± standard deviation ([2]; 10 μM, Table 21a): 16680 ± 2432 RLU; transcription activation potential (luciferase) ± standard deviation ([2]; 30 μM, Table 21a): 38105 ± 3133 RLU; transcription activation potential (luciferase) ± standard deviation ([4]; 1 μM, Table 21b): 146 ± 119 RLU; transcription activation potential (luciferase) ± standard deviation ([4]; 3 μM test compound, Table 20b): 10.6 ± 8.74 LCPS; transcription activation potential (luciferase) ± standard deviation ([4]; 3 μM, Table 21b): 579 ± 557 RLU; transcription activation potential (luciferase) ± standard deviation ([4]; 5 μM, Table 21b): 476 ± 527 RLU; transcription activation potential (luciferase) ± standard deviation ([4]; 7 μM, Table 21b): 834 ± 984 RLU; transcription activation potential (luciferase) ± standard deviation ([4]; 10 μM test compound, Table 20b): 17.2 ± 21 LCPS; transcription activation potential (luciferase) ± standard deviation ([4]; 10 μM, Table 21b): 207 ± 107 RLU; transcription activation potential (luciferase) ± standard deviation ([4]; 30 μM test compound, Table 20b): 88.2 ± 33.2 LCPS; transcription activation potential (luciferase) ± standard deviation ([4]; 30 μM, Table 21b): 818 ± 1201 RLU; transcription activation potential (luciferase) ± standard deviation [4, 5]: 45.8 ± 36.9 LCPS; transcription activation potential (luciferase) ± standard deviation ([4]; 100 μM, Table 21b): 237 ± 216 RLU; transcription activation potential (luciferase) ± standard deviation [4, 6]: 93.6 ± 29.7 LCPS
